The values that follow are results of earlier work, collected in patent US20130324399A1, “FUNGICIDAL COMPOSITIONS AND METHODS OF USE” (Bayer Cropscience LP, priority 2010, published 2013).

This data set concerns Pythium spp. The note with it: Triadimenol, 15% w/v.

Structures are written as SMILES.

Take `CC(C)(C)C(O)C(Oc1ccc(Cl)cc1)n1cncn1` (stereo not shown) [Triadimenol, triadimenol]: the “activity against Pythium spp.” value was “no activity”.
